How the values were obtained:
[1] = molecular target: T1, cocaine binding site of the human dopamine transporter (Homo sapiens, UniProt Q01959); assay: [3H]CFT binding (cocaine analogue displacement at the cocaine site of DAT); details: hDAT CHO cells; 5 nM [3H]CFT; 2 h pre-incubation at 37° C., 6 min at room temperature
T1 construct: expressed in transfected cells

[2] = molecular target: T2, human dopamine transporter (Homo sapiens, UniProt Q01959); assay: [3H]dopamine uptake inhibition in hDAT cells; assay type: cell-based; details: hDAT CHO cells; 100 nM [3H]dopamine; 2 h pre-incubation at 37° C., 6 min at room temperature; read-out: Effect on Dopamine Uptake (Kiuptake)
T2 construct: expressed in transfected cells

[3] = molecular target: T2, human dopamine transporter; assay: uptake to binding ratio (Kiuptake/Kibinding); details: hdat cho cells
Protocol: The experimental procedures for the assay of compounds are as follows.
All assays were performed using Chinese Hamster Ovary cells stably expressing the human dopamine transporter cDNA (HDAT cells). hDAT cells were distributed in 96-well plates and grown 3 to 4 days to confluency (~10^5 cells/well) in Ham's F12 medium containing 10% fetal calf serum.

MPTP induced toxicity = details: mice; literature; cited from earlier work
[4] = test system: mesolimbic dopamine neurons; details: rat; literature; cited from earlier work

T2 sequence (Q01959 whole entry): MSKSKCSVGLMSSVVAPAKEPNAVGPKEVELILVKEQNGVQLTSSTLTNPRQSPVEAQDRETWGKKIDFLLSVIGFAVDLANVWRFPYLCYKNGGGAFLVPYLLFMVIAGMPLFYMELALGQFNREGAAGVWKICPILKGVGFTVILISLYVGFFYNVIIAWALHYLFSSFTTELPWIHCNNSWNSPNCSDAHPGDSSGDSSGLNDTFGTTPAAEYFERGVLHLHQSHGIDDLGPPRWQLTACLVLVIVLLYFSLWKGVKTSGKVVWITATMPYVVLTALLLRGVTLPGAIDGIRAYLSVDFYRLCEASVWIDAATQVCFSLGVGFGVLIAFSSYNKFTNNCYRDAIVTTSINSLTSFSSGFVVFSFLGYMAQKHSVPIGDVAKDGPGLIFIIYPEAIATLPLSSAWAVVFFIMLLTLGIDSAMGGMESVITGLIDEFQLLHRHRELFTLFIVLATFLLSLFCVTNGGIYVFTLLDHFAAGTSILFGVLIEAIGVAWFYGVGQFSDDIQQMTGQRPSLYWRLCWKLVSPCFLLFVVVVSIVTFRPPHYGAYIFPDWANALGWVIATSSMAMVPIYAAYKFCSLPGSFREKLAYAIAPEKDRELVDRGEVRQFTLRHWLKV
T1 sequence (Q01959 whole entry): as above

Compound: Fc1ccc(C(OCCN2CCCCC2)c2ccc(F)cc2)cc1 [1-[2-[Bis(4-fluorophenyl)methoxy]ethyl]piperidine]
- Ki [1]: 211 nM
- Ki [2]: 609 nM
- Uptake to Binding Ratio (Kiuptake/Kibinding) [3]: 2.896

Compound: Fc1ccc(C(OCCN2CCCC2)c2ccc(F)cc2)cc1 [1-[2-[Bis(4-fluorophenyl)methoxy]ethyl]pyrrolidine]
- Ki [1]: 361 nM
- Ki [2]: 947 nM
- Uptake to Binding Ratio (Kiuptake/Kibinding) [3]: 2.623

Compound: CS(=O)(=O)O.CS(=O)(=O)O.Fc1ccc(CCCN2CCN(CCOC(c3ccc(F)cc3)c3ccc(F)cc3)CC2)cc1 [GBR 13,098]
- preventing MPTP induced toxicity (MPTP induced toxicity): effective at preventing MPTP induced toxicity

Compound: Fc1ccc(C(OCCN2CCN(CCCc3ccccc3)CC2)c2ccc(F)cc2)cc1 [GBR 12909]
- attenuation of cocaine-induced activation of mesolimbic dopamine neurons [4]: attenuate cocaine-induced activation of mesolimbic dopamine neurons
